Reference: patent US6340670B1, “Acetal benzylmaltosides as inhibitors of smooth muscle cell proliferation” (American Home Products Corporation, priority 1998, dated 2002)
Read-outs that look alike come from different tables or passages of the source.

What was measured:
[1] = test system: Porcine Smooth Muscle Cell; experiment: Effects of Compounds on Cell Proliferation Using 3H Thymidine Incorporation; format: cell-based; conditions: serum/growth factor stimulated cells, 24-36 h incubation, read-out: Porcine Smooth Muscle Cell Antiproliferation IC50
Outline: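 Early-passage (3-7) sub-confluent smooth muscle cells, serum-starved 24-48 h, were stimulated with growth factor or serum and treated with compound (1 to 100 μM, from 50% ethanol stock) for 24-36 h at 37° C. Proliferation by ^3H-thymidine incorporation into TCA-insoluble material, triplicate, relative to maximally stimulated cells (100%); given as IC50 or % inhibition.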

| SMILES | melting point | IC50 ([1]; Sus scrofa) [nM] | IC50 [1] [nM] |
| --- | --- | --- | --- |
| COc1ccc(C(=O)OCC2OC(OCc3ccc(Cl)c(NC(C)=O)c3)C(O)C(O)C2OC2OC3COC(c4ccccc4)OC3C(O)C2O)cc1 (stereo not shown) [Example 34, 4-Methoxy-benzoic acid 6-(3-acetylamino-4-chloro-benzyloxy)-3-(7,8-dihydroxy-2-phenyl-hexahydro-pyrano[3,2-d][1,3]dioxin-6-yloxy)-4,5-dihydroxy-tetrahydro-pyran-2-ylmethyl ester] | > 117 °C (dec.) | 61 |  |
| CC(=O)Nc1cc(COC2OC(COC(=O)c3ccc(Cl)cc3)C(OC3OC4COC(c5ccccc5)OC4C(O)C3O)C(O)C2O)ccc1Cl (stereo not shown) [Example 36, 4-Chloro-benzoic acid 6-(3-acetylamino-4-chloro-benzyloxy)-3-(7,8-dihydroxy-2-phenyl-hexahydro-pyrano[3,2-d][1,3]dioxin-6-yloxy)-4,5-dihydroxy-tetrahydro-pyran-2-ylmethyl ester] | > 113 °C (dec.) | 89 |  |
| COc1ccc(CC(=O)OCC2OC(OCc3ccc(Cl)c(NC(C)=O)c3)C(O)C(O)C2OC2OC3COC(c4ccccc4)OC3C(O)C2O)cc1OC (stereo not shown) [Example 52, (3,4-Dimethoxy-phenyl)-acetic acid 6-(3-acetylamino-4-chloro-benzyloxy)-3-(7,8-dihydroxy-2-phenyl-hexahydro-pyrano[3,2-d][1,3]dioxin-6-yloxy)-4,5-dihydroxy-tetrahydro-pyran-2-ylmethyl ester] | > 116 °C (dec.) | 48 |  |
| CC(=O)Nc1cc(COC2OC(COC(=O)C(c3ccccc3)c3ccccc3)C(OC3OC4COC(c5ccccc5)OC4C(O)C3O)C(O)C2O)ccc1Cl (stereo not shown) [Example 50, Diphenyl-acetic acid 6-(3-acetylamino-4-chloro-benzyloxy)-3-(7,8-dihydroxy-2-phenyl-hexahydro-pyrano[3,2-d][1,3]dioxin-6-yloxy)-4,5-dihydroxy-tetrahydro-pyran-2-ylmethyl ester] | > 106 °C (dec.) | 84 |  |
| COc1ccc(CC(=O)OCC2OC(OCc3ccc(Cl)c(NC(C)=O)c3)C(OC(C)=O)C(OC(C)=O)C2OC2OC3COC(c4ccccc4)OC3C(OC(C)=O)C2OC(C)=O)cc1OC (stereo not shown) [Example 53, (3,4-Dimethoxy-phenyl)-acetic acid 4,5-diacetoxy-6-(3-acetylamino-4-chloro-benzyloxy)-3-(7,8-diacetoxy-2-phenyl-hexahydro-pyrano[3,2-d][1,3]dioxin-6-yloxy)-tetrahydro-pyran-2-ylmethyl ester] | > 98 °C (dec.) | 266 |  |
| CC(=O)Nc1cc(COC2OC(COC(=O)C(c3ccccc3)c3ccccc3)C(OC3OC4COC(c5ccccc5)OC4C(OC(C)=O)C3OC(C)=O)C(OC(C)=O)C2OC(C)=O)ccc1Cl (stereo not shown) [Example 51, Diphenyl-acetic acid 4,5-diacetoxy-6-(3-acetylamino-4-chloro-benzyloxy)-3-(7,8-diacetoxy-2-phenyl-hexahydro-pyrano[3,2-d][1,3]dioxin-6-yloxy)-tetrahydro-pyran-2-ylmethyl ester] | > 99 °C (dec.) | 354 |  |
| COc1ccc(C(=O)OCC2OC(OCc3ccc(Cl)c(NC(C)=O)c3)C(OC(C)=O)C(OC(C)=O)C2OC2OC3COC(c4ccccc4)OC3C(OC(C)=O)C2OC(C)=O)cc1 (stereo not shown) [Example 35, 4-Methoxy-benzoic acid 4,5-diacetoxy-6-(3-acetylamino-4-chloro-benzyloxy)-3-(7,8-diacetoxy-2-phenyl-hexahydro-pyrano[3,2-d][1,3]dioxin-6-yloxy)-tetrahydro-pyran-2-ylmethyl ester] | > 110 °C (dec.) | 851 |  |
| CC(=O)Nc1cc(COC2OC(COC(=O)c3cccnc3)C(OC3OC4COC(c5ccccc5)OC4C(OC(C)=O)C3OC(C)=O)C(OC(C)=O)C2OC(C)=O)ccc1Cl (stereo not shown) [Example 55, Nicotinic acid 4,5-diacetoxy-6-(3-acetylamino-4-chloro-benzyloxy)-3-(7,8-diacetoxy-2-phenyl-hexahydro-pyrano[3,2-d][1,3]dioxin-6-yloxy)-tetrahydro-pyran-2-ylmethyl ester] | > 112 °C (dec.) | 304 |  |
| CC(=O)Nc1cc(COC2OC(COC(=O)c3ccc(Cl)cc3)C(OC3OC4COC(c5ccccc5)OC4C(OC(C)=O)C3OC(C)=O)C(OC(C)=O)C2OC(C)=O)ccc1Cl (stereo not shown) [Example 37, 4-Chloro-benzoic acid 4,5-diacetoxy-6-(3-acetylamino-4-chloro-benzyloxy)-3-(7,8-diacetoxy-2-phenyl-hexahydro-pyrano[3,2-d][1,3]dioxin-6-yloxy)-tetrahydro-pyran-2-ylmethyl ester] | 114 to 115 °C | 588 |  |
| O=C(OCC1OC(OCc2ccc(Cl)c([N+](=O)[O-])c2)C(O)C(O)C1OC1OC2COC(c3ccccc3)OC2C(O)C1O)c1cccnc1 (stereo not shown) [Example 32, Nicotinic acid 6-(4-chloro-3-nitro-benzyloxy)-3-(7,8-dihydroxy-2-phenyl-hexahydro-pyrano[3,2-d][1,3]dioxin-6-yloxy)-4,5-dihydroxy-tetrahydro-pyran-2-ylmethyl ester] | > 105 °C (dec.) | 405 |  |
| CC(=O)Nc1cc(COC2OC(COC(=O)c3ccccc3)C(OC3OC4COC(c5ccccc5)OC4C(O)C3O)C(O)C2O)ccc1C [Example 85, N-{5-[(6-O-Benzoyl-4′,6′-O-benzylidene-β-D-maltosyl)-oxy-methyl]-2-methyl-phenyl}-acetamide] |  |  | 418 |
| CC(=O)Nc1cc(COC2OC(COC(=O)c3cccc(I)c3)C(OC3OC4COC(c5ccccc5)OC4C(O)C3O)C(O)C2O)ccc1Cl [Example 44, N-{5-[(4′,6′-O-Benzylidene-6-O-(3-iodo)-benzoyl-β-D-maltosyl)-oxy-methyl]-2-chloro-phenyl}-acetamide] |  |  | 62 |
| CC(=O)Nc1cc(COC2OC(COS(=O)(=O)c3ccc(C)cc3)C(OC3OC4COC(c5ccccc5)OC4C(O)C3O)C(O)C2O)ccc1C [Example 59, N-(5-{[4′,6′-O-Benzylidene-6-O-(4-toluenesulfonyl)-β-D-maltosyl]-oxy-methyl}-2-methyl-phenyl)-acetamide] |  |  | 490 |
| COC(=O)CCCC(=O)OCC1OC(OCc2ccc(Cl)c(NC(C)=O)c2)C(O)C(O)C1OC1OC2COC(c3ccccc3)OC2C(O)C1O [Example 28, (R)-N-[2-Chloro-5-[[[6-O-(5-methoxy-1,5-dioxopentyl)-4-O-[4,6-O-(phenylmethylene)-α-D-glucopyranoysl]-β-D-gluconyranosyl]oxy]methyl]-phenyl]acetamide] |  |  | 400 |
| O=C(Nc1cc(COC2OC(COC(=O)c3ccccc3)C(OC3OC4COC(c5ccccc5)OC4C(O)C3O)C(O)C2O)ccc1Cl)c1ccc(C(=O)c2ccccc2)cc1 [Example 71, 4-Benzoyl-N-{5-[(6-benzoyl-oxy-4′,6′-O-benzylidene-β-D-maltosyl)-oxy-methyl]-2-chloro-phenyl}-benzoic acid amide] |  |  | 50 |
| CC(NC(=O)OCC1c2ccccc2-c2ccccc21)C(=O)Nc1cc(COC2OC(COC(=O)c3ccccc3)C(OC3OC4COC(c5ccccc5)OC4C(O)C3O)C(O)C2O)ccc1Cl [Example 76, N-(9H-Fluoren-9ylmethoxycarbonyl)-N′-{5-[(6-O-benzoyl-4′,6′-O-benzylidene-β-D-maltosyl)-oxy-methyl]-2-chloro-phenyl}-L-alaninamide] |  |  | 156 |
| O=[N+]([O-])c1cc(COC2OC(CO)C(OC3OC4COC(c5ccccc5)OC4C(O)C3O)C(O)C2O)ccc1Cl [Example 29, 4-Chloro-3-nitro-benzyl-4′,6′-O-benyzlidene-β-D-maltoside] |  |  | 44100 |
| CC(=O)OC1C(OC2C(COC(=O)c3cccnc3)OC(OCc3ccc(Cl)c([N+](=O)[O-])c3)C(OC(C)=O)C2OC(C)=O)OC2COC(c3ccccc3)OC2C1OC(C)=O [Example 33, (R)-(4-Chloro-3-nitrophenyl)methyl 4-[2,3-di-O-acetyl-4,6-O-(phenylmethylene)-α-D-glucopyranosyl]-β-D-glucopyranoside 2,3-diacetate 6-(3-pyridinecarboxylate)] |  |  | 312 |
